Where two headings read alike, the source gives them in different places.
Legend:
[1] = Pharmacokinetics of Compound 1 in mouse plasma versus kidney; assay type: in vivo
[2] = 14C-labeled Compound 1 single oral 300 mg dose, plasma and urine; assay type: in vivo, human; details: for AUC(0-inf): 300 mg
Method: ^14C-labeled Compound 1 was administered as a single oral 300 mg dose to healthy human subjects. […] The concentrations of Compound 1 in urine are shown in Table 2 and indicate that urine concentrations exceed the plasma concentrations throughout the dosing interval. The AUC0-24 in urine was 186.1 μg*hr/ml.
While the driver of efficacy for Compound 1 in UTI is not completely known, and while not wishing to be bound by any particular theory, Applicant believes that maximizing time of urine concentration above pathogen MIC (ideally, throughout the dosing interval) is desirable. This belief is partly based on a clinical study that evaluated the disposition of a single 300 mg oral dose of ^14C-Compound 1. In this study, plasma concentrations were consistent with previous oral dosing studies (area under the concentration-time curve from 0 to infinity [AUC0-inf] 9.4 μg·h/mL), and it was determined that approximately 40% of the absorbed dose was eliminated in the urine. Urine concentrations of Compound 1 were not measured directly but estimated concentrations (based on portion of excreted radioactivity) exceeded plasma concentrations and averaged between 7.6 and 11.2 μg/mL over the 24 hours following dosing. These urine concentrations would exceed the MIC90 for ESBL-producing E. coli (4 μg/mL) by approximately 2-fold. It is also known from Applicant's clinical studies that exposure to Compound 1 based on plasma concentrations is approximately 50% higher at steady-state than after a single dose.

[3] = Phase 1b study, investigator's assessment of clinical response (EOT, PTE); assay type: in vivo, human
Method: b) Investigator's Assessment of Clinical Response Investigator's Assessment of Clinical Response at EOT
The EOT visit was conducted on Day 6. This evaluation was also conducted for any prematurely withdrawn subject. The following assessments were performed at the EOT visit: subject assessment of UTI signs and symptoms severity, urine culture and leukocyte esterase dipstick test or microscopic examination, physical examination, vital signs, 12-lead ECG, hematology and serum chemistry, serum pregnancy test (all subjects) and investigator's assessment of clinical response. Subjects, who discontinued study treatment before completing the study, and those who prematurely withdrew from the study for any reason, were scheduled for a visit as soon as possible, at which time all of the assessments listed for the EOT visit were performed.
It was determined whether the subject met the criteria of 1 of the following clinical outcomes: • Clinical Success: Resolution of signs and symptoms at the EOT visit and no use of additional antimicrobial therapy. • Clinical Failure: No apparent response to therapy, persistence of signs and symptoms of infection at the EOT visit, or use of additional antimicrobial therapy for the current infection. • Indeterminate: EOT visit not completed. Investigator's Assessment of Clinical Response at PTE
The PTE visit was conducted 5 to 9 days after the subject's last day of therapy. This evaluation was also conducted for any prematurely withdrawn subject. The following assessments were performed at the PTE visit: urine culture and leukocyte esterase dipstick test or microscopic examination, physical examination, vital signs, hematology, serum chemistry, serum pregnancy test (all subjects), and investigator's assessment of clinical response.
It was determined whether the subject met the criteria of 1 of the following clinical outcomes: • Clinical Success: Resolution of signs and symptoms at the PTE visit and no use of additional antimicrobial therapy. • Clinical Failure: No apparent response to therapy, persistence of signs and symptoms of infection, or reappearance of signs and symptoms at or before the PTE visit, or use of additional antimicrobial therapy for the current infection. • Indeterminate: PTE visit not completed.
Investigator's assessment of clinical response at the EOT and PTE visits with outcomes of Clinical Success, Clinical Failure or Indeterminate as defined above. Subjects who were a clinical failure at an earlier time point were considered a clinical failure at subsequent time points. The number and percentage of subjects with an Investigator's assessment of success, failure and indeterminate were presented for EOT and PTE visits by treatment group.

S. marcescens = experiment: In vitro MIC, 2010 surveillance isolates; assay type: cell-based; details: N=424
P. aeruginosa = experiment: In vitro MIC (Data from CMI 07); assay type: cell-based; details: N=22
[4] = test system: E. coli isolates, including ESBL+ and quinolone resistance phenotypes; experiment: In vitro MIC, 2010 surveillance study of 4171 E. coli isolates; assay type: cell-based
E. coli = experiment: In vitro activity in urine relative to standard media; assay type: cell-based
S. saprophyticus = experiment: as above; assay type: cell-based
[5] = 14C-Compound 1 excretion and kidney/blood distribution in rats; assay type: in vivo, rat
[6] = cited from earlier work

CN(C)c1cc(CNCC(C)(C)C)c(O)c2c1C[C@H]1C[C@H]3[C@H](N(C)C)C(O)=C(C(N)=O)C(=O)[C@@]3(O)C(O)=C1C2=O [Compound 1, 9-[(2,2-dimethyl-propylamino)-methyl]-minocycline]
Kp ([1]; kidney/plasma, sc, Subcutaneous, 4.0 mg/kg, read-out: AUC Ratio Kidney:Plasma): 4.2 | AUC(0-inf) ([1]; plasma, sc, Subcutaneous, 4.0 mg/kg): 2820 ng·h/mL | Kp ([1]; tissues including kidney, relative to plasma, subcutaneous, 4 mg/kg, species not printed at b200, read-out: concentrations in tissues including the kidneys relative to plasma): ~4 | absorbed dose eliminated in the urine ([2]; human, in vivo, po): approximately 40% | estimated concentrations in urine, average over 24 hours ([2]; human, in vivo, po): 7.6 and 11.2 | urine concentration relative to 4 μg/mL (MIC90 for ESBL-producing E. coli) ([2]; human, in vivo, po): approximately 2 fold | AUC(0-inf) ([2]; human, in vivo, po, plasma AUC0-inf): 9400 ng·h/mL | AUC(0-inf) ([2]; human, in vivo, po, plasma AUCinf): 9420 ng·h/mL | plasma Cmax ([2]; single oral 300 mg dose, healthy subjects): 563 ng/mL | Reason for Clinical Failure: Persistence of signs and symptoms of infection at or before current visit ([3]; EOT, IV_PO300): 0 (0.0) n (%) | Clinical Failure ([3]; EOT, IV_PO300 (N = 11)): 0 (0.0) n (%) | Clinical Success ([3]; EOT, IV_PO300 (N = 11)): 10 (90.9) n (%) | Indeterminate ([3]; EOT, IV_PO300 (N = 11)): 1 (9.1) n (%) | Reason for Clinical Failure: Persistence of signs and symptoms of infection at or before current visit ([3]; EOT, PO300): 0 (0.0) n (%) | Clinical Failure ([3]; EOT, PO300 (N = 10)): 0 (0.0) n (%) | Clinical Success ([3]; EOT, PO300 (N = 10)): 10 (100.0) n (%) | Indeterminate ([3]; EOT, PO300 (N = 10)): 0 (0.0) n (%) | Reason for Clinical Failure: Persistence of signs and symptoms of infection at or before current visit ([3]; EOT, PO450): 1 (100.0) n (%) | Clinical Failure ([3]; EOT, PO450 (N = 10)): 1 (10.0) n (%) | Clinical Success ([3]; EOT, PO450 (N = 10)): 9 (90.0) n (%) | Indeterminate ([3]; EOT, PO450 (N = 10)): 0 (0.0) n (%) | Reason for Clinical Failure: Persistence of signs and symptoms of infection at or before current visit ([3]; PTE, IV_PO300): 0 (0.0) n (%) | Reason for Clinical Failure: Use of additional systemic antimicrobial therapy for the current infection ([3]; PTE, IV_PO300): 0 (0.0) n (%) | Clinical Failure ([3]; PTE, IV_PO300 (N = 11)): 0 (0.0) n (%) | Clinical Success ([3]; PTE, IV_PO300 (N = 11)): 11 (100.0) n (%) | Indeterminate ([3]; PTE, IV_PO300 (N = 11)): 0 (0.0) n (%) | Reason for Clinical Failure: Persistence of signs and symptoms of infection at or before current visit ([3]; PTE, PO300): 2 (100.0) n (%) | Reason for Clinical Failure: Use of additional systemic antimicrobial therapy for the current infection ([3]; PTE, PO300): 0 (0.0) n (%) | Clinical Failure ([3]; PTE, PO300 (N = 10)): 2 (20.0) n (%) | Clinical Success ([3]; PTE, PO300 (N = 10)): 7 (70.0) n (%) | Indeterminate ([3]; PTE, PO300 (N = 10)): 0 (0.0) n (%) | Reason for Clinical Failure: Persistence of signs and symptoms of infection at or before current visit ([3]; PTE, PO450): 1 (50.0) n (%) | Reason for Clinical Failure: Use of additional systemic antimicrobial therapy for the current infection ([3]; PTE, PO450): 1 (50.0) n (%) | Clinical Failure ([3]; PTE, PO450 (N = 10)): 2 (20.0) n (%) | Clinical Success ([3]; PTE, PO450 (N = 10)): 8 (80.0) n (%) | Indeterminate ([3]; PTE, PO450 (N = 10)): 0 (0.0) n (%) | Cumulative % Inhibition at MIC (S. marcescens; MIC 1 μg/ml): 0.7% | Cumulative % Inhibition at MIC (S. marcescens; MIC 2 μg/ml): 20.3% | Cumulative % Inhibition at MIC (S. marcescens; MIC 4 μg/ml): 76.2% | Cumulative % Inhibition at MIC (S. marcescens; MIC 8 μg/ml): 91.0% | Cumulative % Inhibition at MIC (S. marcescens; MIC 16 μg/ml): 93.6% | Cumulative % Inhibition at MIC (S. marcescens; MIC ≤0.5 μg/ml, listed as head image P00017): 0% | Cumulative % Inhibition at MIC (S. marcescens; MIC ≥32 μg/ml): 100% | Cumulative % Inhibition at MIC (P. aeruginosa; MIC 1 μg/ml): 0% | Cumulative % Inhibition at MIC (P. aeruginosa; MIC 2 μg/ml): 0% | Cumulative % Inhibition at MIC (P. aeruginosa; MIC 4 μg/ml): 0% | Cumulative % Inhibition at MIC (P. aeruginosa; MIC 8 μg/ml): 0% | Cumulative % Inhibition at MIC (P. aeruginosa; MIC 16 μg/ml): 9.1% | Cumulative % Inhibition at MIC (P. aeruginosa; MIC ≤0.5 μg/ml, Data from CMI 07): 0% | Cumulative % Inhibition at MIC (P. aeruginosa; MIC ≥32 μg/ml): 100% | isolates with an MIC value <4 μg/mL [4]: > 97% | activity in urine relative to standard media (E. coli): stable | activity in urine relative to standard media (S. saprophyticus): stable | concentration of radioactivity, kidney pelvis ([5]; IV, 5 minutes post dose): 11,300 ng/g | concentration of radioactivity, blood ([5]; IV, 24 hrs post dose): 57.6 ng/mL | AUCinf, blood ([5]; oral dosing): 3030 ng·h/mL | AUCinf, kidney cortex ([5]; oral dosing): 11,000 ng*h/ml | AUCinf, kidney medulla ([5]; oral dosing): 10,900 ng*h/ml | AUCinf, kidney pelvis ([5]; oral dosing): 10,500 ng*h/ml | Cmax, blood ([5]; oral dosing): 125 ng/mL | Cmax, kidney cortex ([5]; oral dosing): 721 ng/g | Cmax, kidney medulla ([5]; oral dosing): 722 ng/g | Cmax, kidney pelvis ([5]; oral dosing): 1580 ng/g | peak plasma concentration ([6]; 100 mg IV dose): 1.8 mg/L | peak plasma concentration ([6]; 300 mg oral dose): 0.6 mg/L | elimination half-life ([6]; phase 1 studies): approximately 17 hours

Source: patent US10238670B2, “9-aminomethyl minocycline compounds and methods of use thereof in urinary tract infection (UTI) treatment” (Paratek Pharmaceuticals, Inc., priority 2016, dated 2019)
